Test results reported in patent US20110124626A1, “BENZAZEPINE DERIVATIVES AND THEIR USE AS HISTAMINE H3 ANTAGONISTS” (TAKEDA PHARMACEUTICAL COMPANY LIMITED, priority 2008, published 2011).

molecular target: T1, human H3 receptor (Homo sapiens, UniProt Q9Y5N1); assay: In vitro H3 binding assay (3H-N-α-methyl-histamine competition binding); settings: membranes of CHO-K1 cells expressing human H3 receptor; 2 nM 3H-NαMH; read-out: hH3 binding IC50
T1 construct: expressed in transfected cells
Method: The ability of compounds to bind to the H3 receptor was determined by measuring the reduction in tritiated N-α-methyl-histamine (^3H—NαMH) binding in a competition binding assay. Changes in the levels of bound radio-label were monitored by scintillation counting with a Trilux Microbeta (Perkin Elmer).
Membranes were prepared from CHO-K1 cells stably expressing human H3 receptor; routinely grown as monolayers in Ham's F12 medium (Invitrogen) supplemented with 10% Foetal Clone 111 (Hyclone), 500 μg/ml G418 (Invitrogen), 5 μg/ml blasticidine S (Invivogen) and […] Gentamicin (Sigma) in 5% CO2 at 37° C. Cells were grown to 80-95% confluency, rinsed once with 1×PBS (Invitrogen) and detached by incubating with 1×PBS containing 0.02% EDTA (Sigma) for 10 minutes at room temperature. Cells were collected by centrifugation at 900×g, 4° C. for 10 minutes. Cells were rinsed once with 1×PBS and re-suspended in ice cold homogenisation buffer (50 mM Tris-HCl (pH 7.4), 2.5 mM EDTA, 5 mM MgCl2, 200 mM Sucrose) at 1×10^7 cells/ml and kept on ice. Cells were homogenised on ice and debris removed by centrifugation at 500×g, 4° C. for 5 minutes. The resulting supernatant was centrifuged at 75,600×g, 4° C. for 60 minutes. Membranes were suspended in homogenisation buffer, protein concentration was determined (BCA Protein Assay kit (Pierce)), diluted to 2.2 mg/ml, dispensed into 1 ml aliquots and stored at −80° C.
Membranes were thawed on ice, sonicated with 4 cycles of 20 pulses (50% amplitude, 0.5 pulse) (UP200S Hielscher) on ice, diluted in assay buffer (50 mM Tris-HCl (pH7.4), 5 mM MgCl2) to 62.5 μg/ml. Compound was serially diluted in DMSO before being diluted 1:10 with assay buffer. 5 μg of membrane in 80 μl of assay buffer was added per well of a 96 well polystyrene plate (Corning). […] of compound was added per well. The assay was initiated by the addition of 10 μl of 20 nM ^3H—NαMH per well and incubated for one hour at room temperature with shaking. Total binding was determined in the presence of 1% DMSO and non-specific binding was determined by the inclusion of 1 μM R-α-methyl-histamine (RαMH). Incubations were then filtered through filtermat A (Perkin Elmer) and washed three times with assay buffer. Filtermats were dried at 42° C. for two hours, scintillant added and the level of bound radioactivity determined.
IC50 values for compounds were determined from seven point log scale dose-response studies and represent the concentration of compound required to inhibit 50% of the specific binding of 2 nM ^3H—NαMH (difference between total and non-specific binding). Curves were generated using the average of duplicate wells for each data point and analyzed using nonlinear regression of sigmoidal dose response (variable slope).

T1 sequence (Q9Y5N1 whole entry): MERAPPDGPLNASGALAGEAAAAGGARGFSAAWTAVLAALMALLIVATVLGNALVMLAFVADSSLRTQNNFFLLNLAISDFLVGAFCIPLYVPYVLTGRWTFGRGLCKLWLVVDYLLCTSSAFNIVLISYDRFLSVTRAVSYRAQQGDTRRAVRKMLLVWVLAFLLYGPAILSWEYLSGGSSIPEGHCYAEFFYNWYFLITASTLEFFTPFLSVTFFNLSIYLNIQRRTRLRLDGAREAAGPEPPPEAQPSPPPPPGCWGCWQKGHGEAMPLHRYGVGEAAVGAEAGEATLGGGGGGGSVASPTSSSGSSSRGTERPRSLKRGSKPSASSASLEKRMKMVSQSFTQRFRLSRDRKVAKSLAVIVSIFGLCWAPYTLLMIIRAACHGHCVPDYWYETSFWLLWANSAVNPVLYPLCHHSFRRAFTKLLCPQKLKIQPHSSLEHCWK

Row | SMILES | IC50
1 | O=C(NCc1ccc2c(c1)CCN(C1CCC1)CC2)[C@H]1C[C@@H](OC2CCOCC2)C1 [Example 319, cis-N-((3-cyclobutyl-2,3,4,5-tetrahydro-1H-benzo[d]azepin-7-yl)methyl)-3-(tetrahydro-2H-pyran-4-yloxy)cyclobutanecarboxamide] | 62 nM
2 | COCC(C)(C)Oc1ccc(C(=O)NCc2ccc3c(c2)CCN(C2CCC2)CC3)cn1 [Example 315, N-[(3-cyclobutyl-2,3,4,5-tetrahydro-1H-3-benzazepin-7-yl)methyl]-6-[(1-methoxy-2-methylpropan-2-yl)oxy]pyridine-3-carboxamide] | 2 nM
3 | O=C(NCc1ccncc1)c1ccc2c(c1)CCN(C1CCCC1)CC2 [Example 21, 3-Cyclopentyl-N-(pyridin-4-ylmethyl)-2,3,4,5-tetrahydro-1H-benzo[d]azepine-7-carboxamide] | 13 nM
4 | Cc1nn(C)cc1CNC(=O)c1ccc2c(c1)CCN(C1CCC1)CC2 [Example 98, 3-Cyclobutyl-N-((1,3-dimethyl-1H-pyrazol-4-yl)methyl)-2,3,4,5-tetrahydro-1H-benzo[d]azepine-7-carboxamide] | 15 nM
5 | Cc1nocc1C(=O)NCc1ccc2c(c1)CCN(C1CCC1)CC2 [Example 276, N-((3-cyclobutyl-2,3,4,5-tetrahydro-1H-benzo[d]azepin-7-yl)methyl)-3-methylisoxazole-4-carboxamide] | 19 nM
6 | O=C(NCc1ccccn1)c1ccc2c(c1)CCN(C1CCC1)CC2 [Example 45, 3-Cyclobutyl-N-(pyridin-2-ylmethyl)-2,3,4,5-tetrahydro-1H-benzo[d]azepine-7-carboxamide] | 13 nM
7 | Cn1nccc1CCC(O)c1ccc2c(c1)CCN(C1CCC1)CC2 (stereo not shown) [Example 137, 1-(3-cyclobutyl-2,3,4,5-tetrahydro-1H-benzo[d]azepin-7-yl)-3-(1-methyl-1H-pyrazol-5-yl)propan-1-ol] | 26 nM
8 | O=C(Cc1ccc2c(c1)CCN(C1CCC1)CC2)Nc1ccc(N2CCCC2)nc1 [Example 294, 2-(3-cyclobutyl-2,3,4,5-tetrahydro-1H-3-benzazepin-7-yl)-N-[6-(pyrrolidin-1-yl)pyridin-3-yl]acetamide] | 8 nM
9 | O=C(NCc1ccc2c(c1)CCN(C1CCOC1)CC2)c1ccc(N2CCCC2)nc1 (stereo not shown) [Example 269, 6-(pyrrolidin-1-yl)-N-((3-(tetrahydrofuran-3-yl)-2,3,4,5-tetrahydro-1H-benzo[d]azepin-7-yl)methyl)nicotinamide] | 2.5 nM
10 | Cc1cc(CNC(=O)c2ccc3c(c2)CCN(C2CCC2)CC3)c(C)o1 [Example 91, 3-cyclobutyl-N-((2,5-dimethylfuran-3-yl)methyl)-2,3,4,5-tetrahydro-1H-benzo[d]azepine-7-carboxamide] | 6 nM
11 | CCn1cc(CNC(=O)c2ccc3c(c2)CCN(C2CCC2)CC3)c(C)n1 [Example 99, 3-Cyclobutyl-N-((1-ethyl-3-methyl-1H-pyrazol-4-yl)methyl)-2,3,4,5-tetrahydro-1H-benzo[d]azepine-7-carboxamide] | 18 nM
12 | Cc1nc(C)c(C(=O)NCc2ccc3c(c2)CCN(C2CCC2)CC3)s1 [Example 268, N-((3-cyclobutyl-2,3,4,5-tetrahydro-1H-benzo[d]azepin-7-yl)methyl)-2,4-dimethylthiazole-5-carboxamide] | 4 nM
13 | Cc1nc(CNC(=O)c2ccc3c(c2)CCN(C2CCC2)CC3)c(C)o1 [Example 93, 3-cyclobutyl-N-((2,5-dimethyloxazol-4-yl)methyl)-2,3,4,5-tetrahydro-1H-benzo[d]azepine-7-carboxamide] | 29 nM

The remaining compounds from weak to strong by IC50, led by results:

Row | IC50 | SMILES
14 | 37 nM | CCNC(=O)c1ccc2c(c1)CCN(C1CCC1)CC2 [Example 25, 3-Cyclobutyl-N-ethyl-2,3,4,5-tetrahydro-1H-benzo[d]azepine-7-carboxamide]
15 | 34 nM | COc1ccc(CNC(=O)c2ccc3c(c2)CCN(C2CCC2)CC3)cc1 [Example 49, 3-Cyclobutyl-N-(4-methoxybenzyl)-2,3,4,5-tetrahydro-1H-benzo[d]azepine-7-carboxamide]
16 | 30 nM | CO/N=C(\CCc1ccccc1)c1ccc2c(c1)CCN(C1CCC1)CC2 [Example 131, 1-(3-cyclobutyl-2,3,4,5-tetrahydro-1H-benzo[d]azepin-7-yl)-3-phenylpropan-1-one O-methyl oxime]
17 | 24 nM | O=C(C1CCC1)N1CCC(O)(Cc2ccc3c(c2)CCN(C2CCC2)CC3)CC1 [Example 155, cyclobutyl(4-((3-cyclobutyl-2,3,4,5-tetrahydro-1H-benzo[d]azepin-7-yl)methyl)-4-hydroxypiperidin-1-yl)methanone]
18 | 21 nM | O=C(NC1CCC1)c1ccc2c(c1)CCN(C1CCC1)CC2 [Example 27, N,3-Dicyclobutyl-2,3,4,5-tetrahydro-1H-benzo[d]azepine-7-carboxamide]
19 | 18 nM | Cn1ncc(Cl)c1CNC(=O)c1ccc2c(c1)CCN(C1CCC1)CC2 [Example 102, N-((4-chloro-1-methyl-1H-pyrazol-5-yl)methyl)-3-cyclobutyl-2,3,4,5-tetrahydro-1H-benzo[d]azepine-7-carboxamide]
20 | 18 nM | O=C(NCc1ccoc1)c1ccc2c(c1)CCN(C1CCC1)CC2 [Example 89, 3-Cyclobutyl-N-(furan-3-ylmethyl)-2,3,4,5-tetrahydro-1H-benzo[d]azepine-7-carboxamide]
21 | 17 nM | Cc1nn(-c2ccccc2)c(C)c1CNC(=O)c1ccc2c(c1)CCN(C1CCC1)CC2 [Example 110, 3-Cyclobutyl-N-((3,5-dimethyl-1-phenyl-1H-pyrazol-4-yl)methyl)-2,3,4,5-tetrahydro-1H-benzo[d]azepine-7-carboxamide]
22 | 15 nM | Cn1ccc2cc(CNC(=O)c3ccc4c(c3)CCN(C3CCC3)CC4)ccc21 [Example 75, 3-Cyclobutyl-N-((1-methyl-1H-indol-5-yl)methyl)-2,3,4,5-tetrahydro-1H-benzo[d]azepine-7-carboxamide]
23 | 11 nM | O=C(NCc1ccc(Cl)cc1)c1ccc2c(c1)CCN(C1CCC1)CC2 [Example 67, N-(4-Chlorobenzyl)-3-cyclobutyl-2,3,4,5-tetrahydro-1H-benzo[d]azepine-7-carboxamide]
24 | 10 nM | O=C(NCc1cc(-c2cccs2)on1)c1ccc2c(c1)CCN(C1CCC1)CC2 [Example 84, 3-Cyclobutyl-N-((5-(thiophen-2-yl)isoxazol-3-yl)methyl)-2,3,4,5-tetrahydro-1H-benzo[d]azepine-7-carboxamide]
25 | 7 nM | COc1nc(C)c(C(=O)NCc2ccc3c(c2)CCN(C2CCC2)CC3)s1 [Example 275, N-((3-cyclobutyl-2,3,4,5-tetrahydro-1H-benzo[d]azepin-7-yl)methyl)-2-methoxy-4-methylthiazole-5-carboxamide]
26 | 5 nM | O=C(NCC1CCCC1)c1ccc2c(c1)CCN(C1CCC1)CC2 [Example 30, 3-Cyclobutyl-N-(cyclopentylmethyl)-2,3,4,5-tetrahydro-1H-benzo[d]azepine-7-carboxamide]
27 | 5 nM | O=C(NCc1ccc2c(c1)CCN(C1CCOC1)CC2)c1ccc(N2CC[C@H](F)C2)nc1 (stereo partly drawn) [Example 300, 6-((S)-3-fluoropyrrolidin-1-yl)-N-((3-(tetrahydrofuran-3-yl)-2,3,4,5-tetrahydro-1H-benzo[d]azepin-7-yl)methyl)nicotinamide]
28 | 3 nM | CNc1ncc(C(=O)NCc2ccc3c(c2)CCN(C2CCC2)CC3)cn1 [Example 302, N-((3-cyclobutyl-2,3,4,5-tetrahydro-1H-benzo[d]azepin-7-yl)methyl)-2-(methylamino)pyrimidine-5-carboxamide]
29 | 2 nM | Cn1nc(-c2cccs2)cc1CNC(=O)c1ccc2c(c1)CCN(C1CCC1)CC2 [Example 109, 3-Cyclobutyl-N-((1-methyl-3-(thiophen-2-yl)-1H-pyrazol-5-yl)methyl)-2,3,4,5-tetrahydro-1H-benzo[d]azepine-7-carboxamide]
30 | 1 nM | O=C(NCc1ccc2c(c1)CCN(C1CCC1)CC2)c1cccnc1 [Example 120, N-((3-cyclobutyl-2,3,4,5-tetrahydro-1H-benzo[d]azepin-7-yl)methyl)nicotinamide]
31 | 0.3 nM | O=C(NCc1ccc2c(c1)CCN(C1CCC1)CC2)c1ccc(NCC2CC2)nc1 [Example 280, N-[(3-cyclobutyl-2,3,4,5-tetrahydro-1H-3-benzazepin-7-yl)methyl]-6-[(cyclopropylmethyl)amino]pyridine-3-carboxamide]
